The record followed here is patent US9232796B2, “Herbicidal compositions comprising 4-amino-3-chloro-5-fluoro-6-(4-chloro-2-fluoro-3-methoxyphenyl) pyridine-2-carboxylic acid or a derivative thereof and acetyl-CoA carboxylase (ACCase) inhibitors” (DOW AGROSCIENCES LLC, priority 2012, dated 2016).

The test system of assay [1] is CYPES. Put plainly: Example I postemergence foliar-applied, greenhouse, direct seeded rice weeds. The assay is classed as in vivo, Cyperus esculentus L. The source says: (§1) Seeds or nutlets of the desired test plant species were planted in a soil matrix prepared by mixing a loam or sandy loam soil (e.g., 28.6 percent silt, 18.8 percent clay, and 52.6 percent sand, with a pH of about 5.8 and an organic matter content of about 1.8 percent) and calcareous grit in an 80 to 20 ratio. The soil matrix was contained in plastic pots with a volume of 1 quart and a surface area of 83.6 square centimeters (cm^2). When required to ensure good germination and healthy plants, a fungicide treatment and/or other chemical or physical treatment was applied. The plants were grown for 8-22 days in a greenhouse with an approximate 14 hr. photoperiod which was maintained at about 29° C. during the day and 26° C. during the night. Nutrients (Peters Excel® 15-5-15 5-Ca 2-Mg and iron chelate) were applied in the irrigation solution as needed and water was added on a regular basis. Supplemental lighting was provided with overhead metal halide 1000-Watt lamps as necessary. The plants were employed for testing when they reached the first through fourth true leaf stage.
(§2) Treatments consisted of the acid or esters of 4-amino-3-chloro-5-fluoro-6-(4-chloro-2-fluoro-3-methoxy-phenyl)pyridine-2-carboxylic acid (Compound A), each formulated as an SC (suspension concentrate), and various herbicidal components alone and in combination.
(§3) Other herbicidal components were applied on an acid equivalent (ae) or active ingredient (ai) basis and included acetyl coA carboxylase (ACCase)-inhibiting herbicides (cyclohexanedione and aryloxyphenoxypropionate chemical classes) cyhalofop-butyl formulated as Clincher® SF (285 gr ai/L EC), diclofop-methyl formulated as Hoelon® 3EC, fenoxaprop-p-ethyl+isoxadifen-ethyl formulated as RiceStar® HT (0.58 lb./gal EC), fenoxaprop-p-ethyl+mefenpyr diethyl formulated as Puma® IEC, metamifop formulated as Metamifop EC, haloxyfop-methyl formulated as Gallant Super®, fluazifop-p-butyl formulated as Fusilade® DX, quizalofop-p-ethyl formulated as Assure® II, profoxydim formulated as Aura® 20EC, clethodim applied as Intensity®, sethoxydim formulated as Poast®, and tralkoxydim formulated as Achieve®.
(§4) Treatment requirements were calculated based upon the rates being tested, the concentration of active ingredient or acid equivalent in the formulation, and a 12 mL application volume at a rate of 187 L/ha.
(§5) For treatments comprised of formulated compounds, measured amounts of compounds were placed individually in 25 mL glass vials and diluted in a volume of 1.25% (v/v) Agri-Dex® crop oil concentrated to obtain 12× stock solutions. […] Application solutions were prepared by adding an appropriate amount of each stock solution (e.g., 1 mL) and diluted to the appropriate final concentrations with the addition of 10 mL of an aqueous mixture of 1.25% (v/v) crop oil concentrate so that the final spray solutions contained 1.25+/−0.05% (v/v) crop oil concentrate.
(§6) All stock solutions and applications solutions were visually inspected for compound compatibility prior to application. Spray solutions were applied to the plant material with an overhead Mandel track sprayer equipped with a 8002E nozzles calibrated to deliver 187 L/ha over an application area of 0.503 m^2 at a spray height of 18 to 20 inches (46 to 50 cm) above average plant canopy height. Control plants were sprayed in the same manner with the solvent blank.
(§7) The treated plants and control plants were placed in a greenhouse as described above and watered by sub-irrigation to prevent wash-off of the test compounds. After approximately 3 weeks, the condition of the test plants as compared with that of the untreated plants was determined visually and scored on a scale of 0 to 100 percent where 0 corresponds to no injury or growth inhibition and 100 corresponds to complete kill. […]

Assay [2] relates to SCPJU. The assay is described as above. The assay is classed as in vivo, Schoenoplectus juncoides (Roxb.) Palla.
From the text: as §1, §2, §3, §4, §5, §6, §7

The subject of assay [3] is BRAPP. The assay is described as above. It is filed as in vivo, Brachiaria platyphylla (Griseb.) Nash. The following applies: 70 gai/ha.
From the text: as §1, §2, §3, §4, §5, §6, §7

The subject of assay [4] is DIGSA. The assay is described as above. The following applies: 70 gai/ha. The assay is classed as in vivo, Digitaria sanguinalis (L.) Scop.
From the text: as §1
Treatments consisted of the acid or esters of 4-amino-3-chloro-5-fluoro-6-(4-chloro-2-fluoro-3-methoxy-phenyl)pyridine-2-carboxylic acid (Compound A), each formulated as an SC (suspension concentrate), and various herbicidal components alone and in combination. […]
as §4
For treatments comprised of formulated compounds, measured amounts of compounds were placed individually in 25 mL glass vials and diluted in a volume of 1.25% (v/v) Agri-Dex® crop oil concentrated to obtain 12× stock solutions. […]
as §7

The subject of assay [5] is ECHCG. Put plainly: Example VI in-water applied ternary mixtures, greenhouse, transplanted paddy rice weeds. The assay is classed as in vivo, Echinochloa crus-galli (L.) Beauv. Conditions: Table 68, 22.5 gai/ha, 21 DAA. As to the method:
(§8) Weed seeds or nutlets of the desired test plant species were planted in puddled soil (mud) prepared by mixing a shredded, non-sterilized mineral soil (50.5 percent silt, 25.5 percent clay, and 24 percent sand, with a pH of about 7.6 and an organic matter content of about 2.9 percent) and water at a 1:1 volumetric ratio. The prepared mud was dispensed in 365 mL aliquots into 16-ounce (oz.) non-perforated plastic pots with a surface area of 86.59 square centimeters (cm^2) leaving a headspace of 3 centimeters (cm) in each pot. Mud was allowed to dry overnight prior to planting or transplanting. Rice seeds were planted in Sun Gro MetroMix® 306 planting mixture, which typically has a pH of 6.0 to 6.8 and an organic matter content of about 30 percent, in plastic plug trays. Seedlings at the second or third leaf stage of growth were transplanted into 860 mL of mud contained in 32-oz. non-perforated plastic pots with a surface area of 86.59 cm^2 4 days prior to herbicide application. The paddy was created by filling the headspace of the pots with 2.5 to 3 cm of water. When required to ensure good germination and healthy plants, a fungicide treatment and/or other chemical or physical treatment was applied. The plants were grown for 4-22 days in a greenhouse with an approximate 14 hr. photoperiod which was maintained at about 29° C. during the day and 26° C. during the night. Nutrients were added as Osmocote® (19:6:12, N:P:K+minor nutrients) at 2 g per 16-oz. pot and 4 g per 32-oz. pot. Water was added on a regular basis to maintain the paddy flood, and supplemental lighting was provided with overhead metal halide 1000-Watt lamps as necessary. The plants were employed for testing when they reached the first through fourth true leaf stage.
Treatments consisted of the benzyl ester of 4-amino-3-chloro-5-fluoro-6-(4-chloro-2-fluoro-3-methoxy-phenyl)pyridine-2-carboxylic acid (Compound A), formulated as an SC (suspension concentrate), an ACCase inhibitor herbicide, and a third herbicidal component, each applied alone and in ternary combination. Forms of compound A were applied on an acid equivalent basis.
The ACCase inhibitor component was applied on an active ingredient basis and included cyhalofop-R-butyl formulated as Clincher® G and metamifop formulated as Metamifop EC. Other herbicidal components were applied on an active ingredient or acid equivalent basis depending on the compound and included penoxsulam formulated as Grasp® SC, bentazon sodium formulated as Basagran®, triclopyr […] (TEA) salt formulated as Grandstand® R, benzobicyclon formulated as Benzobicyclon, benfuresate formulated as Full Slot® WG, pyraclonil formulated as Pyraclon® Flowable, mefenacet (technical grade material), and pretilachlor (technical grade material).
Treatment requirements for each compound or herbicidal component were calculated based upon the rates being tested, the concentration of active ingredient or acid equivalent in the formulation, an application volume of 1 mL per component per pot, and an application area of 86.59 cm^2 per pot.
(§9) For formulated compounds, a measured amount was placed in an individual 100 or 200 mL glass vial and was dissolved in a volume of 1.25% (v/v) Agri-Dex® crop oil concentrate to obtain application solutions.
For technical grade compounds, a weighed amount was placed in an individual 100 to 200 mL glass vial and was dissolved in a volume of acetone to obtain concentrated stock solutions.
Applications were made by injecting with a pipetter appropriate amounts of the application solutions, into the aqueous layer of the paddy. Control plants were treated in the same manner with the solvent blank. Applications were made so that all treated plant material received the same concentrations of acetone and crop oil concentrate.
The treated plants and control plants were placed in a greenhouse as described above and water was added as needed to maintain a paddy flood. […]

The test system of assay [6] is SCPMA. The assay is described as above. The assay is classed as in vivo. The following applies: Table 68, pyraclonil 22.5 gai/ha.
For assay [7], the system named is CYPDI. The assay is described as follows: Example I postemergence foliar-applied, greenhouse, direct seeded rice weeds. The assay is classed as in vivo, Cyperus difformis L.
From the text: as §1, §2, §3, §4, §5
All stock solutions and applications solutions were visually inspected for compound compatibility prior to application. […]
as §7

The subject of assay [8] is CYPIR. The assay is described as above. The assay is classed as in vivo, Cyperus iria L.
From the text: as §1, §2, §3, §4, §5, §6, §7

The test system of assay [9] is ECHCG. The description is as above. It is filed as in vivo, Echinochloa crusgalli (L.) Beauv.
From the text: as §1, §2, §3, §4, §5, §6, §7

Assay [10] has as its system LEFCH. The description is as above. It is filed as in vivo, Leptochloa chinensis (L.) Nees. Conditions: 112 gai/ha.
From the text: as §1, §2, §3, §4, §5, §6, §7

Assay [11] deals with SCPJU. Put plainly: Example II in-water applied, greenhouse, transplanted paddy rice weeds. Conditions: in-water, 135 gai/ha. It is filed as in vivo, Schoenoplectus juncoides (Roxb.) Palla. How it is done: as §8, with “When required to ensure good germination and healthy plants, a fungicide treatment and/or other chemical or physical treatment was applied.” left out
(§10) Treatments consisted of the acid or esters of 4-amino-3-chloro-5-fluoro-6-(4-chloro-2-fluoro-3-methoxy-phenyl)pyridine-2-carboxylic acid (compound A) each formulated as an SC (suspension concentrate) and various herbicidal components alone and in combination.
as §9
(§11) Applications were made by injecting with a pipetter appropriate amounts of the application solutions, individually and sequentially, into the aqueous layer of the paddy. Control plants were treated in the same manner with the solvent blank. Applications were made so that all treated plant material received the same concentrations of acetone and crop oil concentrate.
(§12) The treated plants and control plants were placed in a greenhouse as described above and water was added as needed to maintain a paddy flood. After approximately 3 weeks the condition of the test plants as compared with that of the untreated plants was determined visually and scored on a scale of 0 to 100 percent where 0 corresponds to no injury or growth inhibition and 100 corresponds to complete kill.
(§13) Colby's equation was used to determine the herbicidal effects expected from the mixtures (Colby, S. R. 1967. Calculation of the synergistic and antagonistic response of herbicide combinations. Weeds 15:20-22.).
(§14) The following equation was used to calculate the expected activity of mixtures containing two active ingredients, A and B: Expected=A+B−(A×B/100)

Assay [12] relates to FIMMI. The assay is described as above. It is filed as in vivo, Fimbristylis miliacea (L.) Vahl. How it is done:
as §8, with “When required to ensure good germination and healthy plants, a fungicide treatment and/or other chemical or physical treatment was applied.” left out
as §10, §9, §11, §12, §13, §14

For assay [13], the system named is ECHCG. The description is as above. The assay is classed as in vivo, Echinochloa crusgalli (L.) Beauv. The following applies: 135 gai/ha. How it is done:
as §11, §12, §13, §14

In the case of `CCSC(C)CC1CC(=O)C(/C(CC)=N/OC/C=C/Cl)=C(O)C1` (stereo not shown) [Clethodim, 2-[1-[[[(2E)-3-chloro-2-propen-1-yl]oxy]imino]propyl]-5-[2-(ethylthio)propyl]-3-hydroxy-2-cyclohexen-1-one, reference compound], the “Visual Weed Control (%) - 20 DAA CYPES Obs” value in assay [1] (70 gai/ha), in assay [1] (140 gai/ha) and in assay [1] (280 gai/ha) was 0% in each case. Further, the “Visual Weed Control (%) - 20 DAA SCPJU Obs” value in assay [2] (140 gai/ha) and in [2] (280 gai/ha) was 0% in each case. Also, the “Visual Weed Control (%) - 20 DAA BRAPP Obs” value in [3] is recorded as 10%. The “Visual Weed Control (%) - 20 DAA DIGSA Obs” value in assay [4] is 50%.

Turning to `C#CCN(C)c1c(C#N)cnn1-c1nn2c(c1Cl)CCCC2` [Pyraclonil], the “Visual Weed Control (%) - 21 DAA ECHCG Obs” value in [5] worked out at 30%. Besides, the “Visual Weed Control (%) - 21 DAA SCPMA Obs” value in assay [6] worked out at 78%.

For the compound `CCC/C(=N\OCC)C1=C(O)CC(CC(C)SCC)CC1=O` (stereo not shown) [Sethoxydim, 2-[1-(ethoxyimino)butyl]-5-[2-(ethylthio)propyl]-3-hydroxy-2-cyclohexen-1-one], the “Visual Weed Control (%) - 22 DAA CYPDI Obs” value in assay [7] (67.5 gai/ha), in assay [7] (135 gai/ha) and in assay [7] (270 gai/ha) was 0% throughout. Also, the “Visual Weed Control (%) - 22 DAA CYPES Obs” value in assay [1] (67.5 gai/ha), in assay [1] (135 gai/ha) and in assay [1] (270 gai/ha) was 0% in each case. For the same compound, the “Visual Weed Control (%) - 22 DAA SCPJU Obs” value in assay [2] (67.5 gai/ha), in assay [2] (135 gai/ha) and in assay [2] (270 gai/ha) was 0% in each case. The “Visual Weed Control (%) - 22 DAA CYPIR Obs” value in [8] (67.5 gai/ha), in assay [8] (135 gai/ha) and in assay [8] (270 gai/ha) was 0% each time. For the same compound, the “Visual Weed Control (%) - 22 DAA ECHCG Obs” value in [9] (56 gai/ha) is 30%; in assay [9] (112 gai/ha) it was 90%. Besides, the “Visual Weed Control (%) - 22 DAA LEFCH Obs” value in assay [10] turned out to be 70%. In assay [11], the “Visual Weed Control (%) - 21 DAA SCPJU Obs” value worked out at 0%. In addition, the “Visual Weed Control (%) - 21 DAA FIMMI Obs” value was found to be 50% in [12] (135 gai/ha) and 30% in assay [12] (270 gai/ha). The “Visual Weed Control (%) - 21 DAA ECHCG Obs” value in [13] amounted to 60%.
